Converted amounts (≈) assume the structure as drawn.
Key:
Format in all cases: physicochemical
[1] = Compressibility of crystalline forms (manual tableting, hardness and tensile strength); settings: for hardness (radial crushing force) / Tensile strength: tablet pressed at 10 KN; for hardness (radial crushing force): 24 hours in dryer; for Tensile strength: T=2H/πDL
Method: A manual tableting machine was used to perform the tableting. […] 10 KN pressure was applied to suppress into cylindrical tablets, which were placed in a dryer for 24 hours. After the complete elastic restoration, the tablets were tested with a tablet hardness meter for its radial crushing force (hardness, H). Diameter (D) and thickness (L) of the tablets were measured with a Vernier caliper, and the tensile strength of the powder under different hardness was calculated using the formula T=2H/πDL. Under a certain pressure, the higher the tensile strength was, the better the compressibility was.

[2] = Hygroscopicity by dynamic vapor sorption (DVS); settings: 25° C.; for Weight gain at 80% RH: 80% relative humidity; for Weight gain at 95% RH: 95% relative humidity
Method: The dynamic vapor sorption diagrams of the present invention were collected on Intrinsic-type and Intrinsic Plus-type dynamic vapor sorption instruments of SMS company. The process parameters of the dynamic vapor sorption test of the present invention were as follows: Temperature: 25° C. Protection gas and its flow rate: N2, 200 mL/minute dm/dt: 0.002%/minute Minimum dm/dt equilibration time: 10 minutes Maximum Equilibration Time: 180 minutes Relative humidity range: 0% RH-95% RH-0% RH Relative humidity gradient: 10% (0% RH-90% RH-0% RH), 5% (90% RH-95% RH and 95% RH-90% RH). Each about 10 mg of Crystalline Form of the present invention and Crystalline Form A of WO2020/008391A was weighed for dynamic vapor sorption (DVS) test, and then sampled to measure XRPD. The experimental results were shown in Table 21, and the dynamic vapor sorption diagrams of Crystalline Forms A and E were shown in FIGS. 22-23 respectively.

[3] = Solubility of crystalline forms in FaSSIF, FeSSIF and pure water (saturated solutions, HPLC); settings: 37° C.; for Solubility in water: pure water
Method: The sample contents in saturated solutions were determined by high performance liquid chromatography (HPLC).

[4] = Intrinsic dissolution rate; settings: pH 6.8 Phosphate Buffer, 37° C., paddle 100 rpm, sheet 0.5 cm^2
Method: The intrinsic dissolution rate data of the present invention were collected on an Agilent 708DS-type dissolution apparatus of the Agilent company. The intrinsic dissolution test conditions were as follows.
An intact pressed sheet was transferred to the dissolution apparatus for testing the intrinsic dissolution rate, and the slope was calculated according to the measurement points between 10 and 30 minutes, expressed in mg/mL, and the intrinsic dissolution rate (IDR) was further calculated according to the slope, expressed in mg/min/cm^2. The dissolution rate of Crystalline Form E of the present invention was faster than that of Crystalline Form A of the prior art.

Compound	hardness (radial crushing force) [1] [N]	Tensile strength [1] [MPa]	Weight gain at 80% RH [2] [%]	Weight gain at 95% RH [2] [%]	Solubility in FaSSIF ([3]; equilibrated 1 hour) [µg/mL]	Solubility in FaSSIF ([3]; equilibrated 2 hours) [µg/mL]	Solubility in FaSSIF ([3]; equilibrated 4 hours) [µg/mL]	Solubility in FeSSIF ([3]; equilibrated 1 hour) [µg/mL]	Solubility in FeSSIF ([3]; equilibrated 2 hours) [µg/mL]	Solubility in FeSSIF ([3]; equilibrated 4 hours) [µg/mL]	Solubility in water ([3]; equilibrated 1 hour) [µg/mL]	Solubility in water ([3]; equilibrated 2 hours) [µg/mL]	Solubility in water ([3]; equilibrated 4 hours) [µg/mL]	tensile strength and compressibility compared with Crystalline Form A ([1]; 10 KN)	dissolution rate (intrinsic) compared with Crystalline Form A [4]	solubility in FaSSIF, FeSSIF and pure water compared with Crystalline Form A [3]
CCCS(=O)(=O)N[C@H]1C[C@@H](N(C)c2ncnc3[nH]ccc23)C1 [Crystalline Form A, reference compound]	17.01	1.805	0.09	0.27	72.3 (≈ 224 µM)	78 (≈ 241 µM)	76.1 (≈ 235 µM)	9.4 (≈ 29.1 µM)	9.4 (≈ 29.1 µM)	9.6 (≈ 29.7 µM)	64.3 (≈ 199 µM)	74.7 (≈ 231 µM)	72.3 (≈ 224 µM)	–	–	–
CCCS(=O)(=O)N[C@H]1C[C@@H](N(C)c2ncnc3[nH]ccc23)C1 [Crystalline Form E]	17.20	2.607	0.11	0.19	153.8 (≈ 476 µM)	164.5 (≈ 509 µM)	169.4 (≈ 524 µM)	38.4 (≈ 119 µM)	39.2 (≈ 121 µM)	44.1 (≈ 136 µM)	114.7 (≈ 355 µM)	138.6 (≈ 429 µM)	156.2 (≈ 483 µM)	higher tensile strength and better compressibility	faster	higher
CCCS(=O)(=O)N[C@H]1C[C@@H](N(C)c2ncnc3[nH]ccc23)C1 [Crystalline Form F]	–	–	–	–	189 (≈ 584 µM)	203.5 (≈ 629 µM)	214.2 (≈ 662 µM)	51.6 (≈ 160 µM)	54.9 (≈ 170 µM)	59.2 (≈ 183 µM)	179.6 (≈ 555 µM)	189.2 (≈ 585 µM)	203 (≈ 628 µM)	–	–	–

Source: patent US20230203040A1, “CRYSTALLINE FORMS OF A SULFONAMIDE COMPOUND AND PROCESSES FOR PREPARING THE SAME” (CRYSTAL PHARMATECH CO., LTD., priority 2020, published 2023)
